The subject of assay [1] is MT4. Put plainly: In vitro inhibitory activity against replication of HIV-1 in human lymphocyte MT-4 cells. Format: functional, cell-based.
Assay [2] deals with CCRF-CEM. Put plainly: In vitro inhibitory activity against replication of HIV-1 in human lymphocyte CEM cells. It is filed as functional, cell-based.
In assay [3] the test system is CCRF-CEM. Put plainly: In vitro inhibitory activity against replication of HIV-2 in human lymphocyte thymidine kinase deficient CEM cells. Format: functional, cell-based.
In assay [4] the test system is CCRF-CEM. Put plainly: In vitro inhibitory activity against replication of HIV-2 in human lymphocyte CEM cells. Format: functional, cell-based.
For assay [5], the system named is MT4. Put plainly: Cytotoxicity against human lymphocyte MT-4 cells. Format: functional.
Assay [6] concerns MT4. Put plainly: In vitro inhibitory activity against replication of HIV-2 in human lymphocyte MT-4 cells. It is filed as functional, cell-based.

In the case of `Cc1cn(C2CC(N=[N+]=[N-])C(COP(=O)(Oc3ccccc3[N+](=O)[O-])Oc3ccccc3[N+](=O)[O-])O2)c(=O)[nH]c1=O` (configuration not stated), the concentration giving a half-maximal response (EC50) in the assay with MT4 [1] is 12.1 nM; in the assay with CCRF-CEM [2] it was 5.3 nM; in the assay with CCRF-CEM [3] it was above 100000 nM; in the assay with CCRF-CEM [4], 6.2 nM; in the assay on MT4 [6] it was 14 nM. This compound also came in with a CC50 in the assay with MT4 [5] of 42000 nM.
Regarding `Cc1cn(C2CC(N=[N+]=[N-])C(COP(=O)(Oc3cccc([N+](=O)[O-])c3)Oc3cccc([N+](=O)[O-])c3)O2)c(=O)[nH]c1=O` (configuration not stated), the EC50 was found to be 2.5 nM with MT4 [1]; 3.8 nM with CCRF-CEM [2]; 85000 nM with CCRF-CEM [3]; 3.8 nM in the assay with CCRF-CEM [4]; 3.1 nM in the assay on MT4 [6]. Also, the CC50 in the assay with MT4 [5] was 36000 nM.
`Cc1cn(C2CC(N=[N+]=[N-])C(COP(=O)(Oc3ccc([N+](=O)[O-])cc3)Oc3ccc([N+](=O)[O-])cc3)O2)c(=O)[nH]c1=O` (configuration not stated): the EC50 in the assay on MT4 [1] came out at 13 nM; with CCRF-CEM [2], 9 nM; in the assay with CCRF-CEM [3], 50000 nM; in the assay with CCRF-CEM [4], 15 nM; in the assay with MT4 [6] it was 10 nM. In addition, the midpoint of cytotoxicity with MT4 [5], the CC50, lay at 50000 nM.
With `Cc1cn([C@H]2C[C@H](N=[N+]=[N-])[C@@H](CO)O2)c(=O)[nH]c1=O` [ZIDOVUDINE], the EC50 with MT4 [1] is 2.5 nM; with CCRF-CEM [3], above 100000 nM; in the assay with CCRF-CEM [4], 3.5 nM. Moreover, half-maximal cytotoxicity with MT4 [5] (CC50) was put at 6000 nM.

The record behind these values is ChEMBL document CHEMBL1150553, “Diaryl phosphate derivatives act as pro-drugs of AZT with reduced cytotoxicity compared to the parent nucleoside” (Bioorg Med Chem Lett, 1994).
